# Test results from patent US8835403B2, “Algin oligosaccharides and the derivatives thereof as well as the manufacture and the use of the same” (priority 2004, dated 2014).
# Legend:
# Na+, K+-ATPase = Na+, K+-ATPase activity in cerebral cortex and hippocampus of Aβ1-40-induced AD mice; type: in vivo
# Protocol: (§1) Following the behavioral test, rats are decapitated. Cerebral cortex and hippocampus are dissected on ice immediately, and stored at −80° C. after quick freezing in liquid nitrogen for 1 hour. MDA, SOD, GSH-PX, Na^+, K^+-ATPase, AchE and CHAT activities in the brain regions are determined using the respective kits. The homogenates of cerebral cortex and hippocampus are prepared with saline with a final concentration of 10% and 5%. The supernatant were obtained after centrifuging at 3600 rpm to test MDA, CuZn-SOD, GSH-PX, Na^+K^+-ATPase, AchE, and CHAT activities. The activity of ChAT is determined with isotope-labeled method. The other indexes and amount of total proteins are tested with the respective kits supplied by Nanjing Jiancheng Bioengineering Institute.
# Aβ1-40 [1] = biological target: T1, Aβ1-40 (Homo sapiens, UniProt P05067); test: SPR interaction of immobilized 6-mer and aged Aβ1-40; type: binding
# T1 sequence (P05067 672-711 limits assumed): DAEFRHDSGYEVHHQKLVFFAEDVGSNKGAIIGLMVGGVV
# Protocol: SPR technique (BIAcore X, Uppsala, Sweden) is used to characterize the interaction of 6-mer and Aβ. Different degree of aged Aβ1-40 (aged for 0, 0.5, 1, 2, 4, 6 d at 37° C.) in HBS EP buffer solution (0.01 […], 150 mmol/L NaCl, 3.4 mmol/L EDTA-Na2, 0.005 vol % Tween-20, pH 7.4) with 5 concentrations are flowed through the 6-mer-immobilized sensor chip. The flow rate is 5 μl/min, and the injection volume is 10 μl. The binding sensorgramm is recorded and the sensor chip is regenerated with 2M NaCl.
# GSH-PX = GSH-PX activity in cerebral cortex and hippocampus of Aβ1-40-induced AD mice; type: in vivo
# Protocol: as §1
# The GSH-PX activity in cerebral cortex and hippocampus is decreased after usage of Aβ with significant difference to the control group in hippocampus (p<0.05).
# Aβ1-40 [2] = biological target: T1, Aβ1-40; test: Conformation of Aβ1-40 by CD spectra; type: biochemical; conditions: 6-mer 100 μg/ml, Aβ1-40 250 μg/ml, 37° C., 12 h (FIG. 11C)
# Protocol: CD spectra (J-[…], JASCO, Japan) of monomeric Aβ1-40 (250 μg/ml in TBS (100 mM Tris, 50 mM NaCl, pH7.4)) incubated at 37° C. for 12 h is mainly characterized by β-sheet secondary structure (FIG. 11A).
# [3] = system: human pancreatic beta-cells cell line NIT; test: Protection of pancreatic beta-cell line NIT impaired by amylin (MTT); type: cell-based; conditions: 6-mer 10, 50, 100 μg/ml 24 h pretreatment, 30 μM aged amylin 48 h (FIG. 12)
# Protocol: The human pancreatic beta-cells cell line NIT is cultured with DMEM medium containing 10% FBS. The cells are incubateded into 96-well plates in density of 1×10^4 cells/well. The day after plating, they are pretreated with varying concentrations of 6-mer (final concentration of 0, 10, 50, 100 μg/ml) for 24 h, followed by the addition of aged amylin with a final concentration of 30 μM. After 48 h at 37° C., the survival of the cells is measured by MTT method.
# [4] = system: apoptotic cascade induced by Aβ; test: Apoptotic cascade markers induced by Aβ; type: cell-based
# SH-SY5Y cells = test: Protection of SH-SY5Y cells impaired by Aβ25-35 and Aβ1-40; type: cell-based; conditions: 50 and 100 μg/ml; 30 μM aged Aβ25-35 or 2 μM Aβ1-40 for 48 h (FIG. 7, 8)
# Protocol: 6-mer has similar protective effects on neuron cell line SH-SY5Y as the primary neurons. SH-SY5Y impaired with 30 μM of aged Aβ25-35 (FIG. 7) and 2 μM of Aβ1-40 (FIG. 8) for 48 h could induce a series of changes, for example, damage to the cells, reduced number of cells, occurrence of some round cells and suspension cells. Further, the survival rate of the cells is reduced to 73.3±9.4% and 64.1±2.5% respectively.
# ChAT = test: Cerebral cortex ChAT activity of Aβ1-40-induced AD mice; type: in vivo
# Aβ1-40 [5] = biological target: T1, Aβ1-40; test: Fibril formation of Aβ1-40, Th-T fluorescence; type: biochemical; conditions: 24 h
# Protocol: Fresh Aβ1-40 is incubated alone or with 6-mer (final concentration of 10, 50, and 100 μg/ml, respectively) at 37° C. for 24 h. After incubation, Th-T is added and fluorescence intensity is monitored at […].
compound,measurement,setting,value
"O=C(O)C1OC(OC2C(C(=O)O)OC(OC3C(C(=O)O)OC(OC4C(C(=O)O)OC(OC5C(C(=O)O)OC(OC6C(C(=O)O)OC(O)C(O)C6O)C(O)C5O)C(O)C4O)C(O)C3O)C(O)C2O)C(O)C(O)C1O (stereo not shown) [6-mer, mannuronic hexasaccharide]",ATPase activity (μmol Pi/mg prot./hour) cerebral cortex,"Na+, K+-ATPase; 15 mg/kg",1.08 ± 0.06 μmol Pi/mg prot./hour
same,ATPase activity (μmol Pi/mg prot./hour) cerebral cortex,"Na+, K+-ATPase; 30 mg/kg",1.09 ± 0.08 μmol Pi/mg prot./hour
same,ATPase activity (μmol Pi/mg prot./hour) cerebral cortex,"Na+, K+-ATPase; 60 mg/kg",1.08 ± 0.05 μmol Pi/mg prot./hour
same,ATPase activity (μmol Pi/mg prot./hour) hippocampus,"Na+, K+-ATPase; 15 mg/kg",2.10 ± 0.29 μmol Pi/mg prot./hour
same,ATPase activity (μmol Pi/mg prot./hour) hippocampus,"Na+, K+-ATPase; 30 mg/kg",2.07 ± 0.23 μmol Pi/mg prot./hour
same,ATPase activity (μmol Pi/mg prot./hour) hippocampus,"Na+, K+-ATPase; 60 mg/kg",2.52 ± 0.25 μmol Pi/mg prot./hour
same,Kd,Aβ1-40 [1]; Aβ1-40 aged 0.5 d at 37° C.,107 nM
same,Kd,Aβ1-40 [1]; Aβ1-40 aged 1 d at 37° C.,90.6 nM
same,Kd,Aβ1-40 [1]; Aβ1-40 aged 2 d at 37° C.,54.3 nM
same,Kd,Aβ1-40 [1]; Aβ1-40 aged 4 d at 37° C.,21.5 nM
same,Kd,Aβ1-40 [1]; Aβ1-40 aged 6 d at 37° C.,14.5 nM
same,Kd,Aβ1-40 [1]; fresh Aβ1-40 (aged 0 d),685 nM
same,GSH-PX (U/mg prot.) cerebral cortex,GSH-PX; 15 mg/kg,8.53 ± 0.86 U/mg prot.
same,GSH-PX (U/mg prot.) cerebral cortex,GSH-PX; 30 mg/kg,7.12 ± 1.10 U/mg prot.
same,GSH-PX (U/mg prot.) cerebral cortex,GSH-PX; 60 mg/kg,10.75 ± 1.80 U/mg prot.
same,GSH-PX (U/mg prot.) hippocampus,GSH-PX; 15 mg/kg,4.13 ± 0.58 U/mg prot.
same,GSH-PX (U/mg prot.) hippocampus,GSH-PX; 30 mg/kg,4.25 ± 0.54 U/mg prot.
same,GSH-PX (U/mg prot.) hippocampus,GSH-PX; 60 mg/kg,4.81 ± 0.95 U/mg prot.
same,β-sheet formation of monomeric Aβ1-40 (CD),Aβ1-40 [2],prevents the β-sheet formation
same,survived cells impaired by amylin,[3],increase the survived cells impaired by amylin in a dose-dependent manner
same,expression of Bcl-2,[4],up-regulating
same,expression of Caspase-3,[4],down-regulating
same,expression of P53,[4],down-regulating
same,overload of intracellular calcium ion and ROS accumulation,[4],reversing
same,"neurotoxicity of Aβ (survival rate, suspension cells)",SH-SY5Y cells,significantly inhibit the neurotoxicity of Aβ
same,ChAT activity (pmol/mg prot./min),ChAT; 15 mg/kg,90.94 ± 3.77 pmol/mg prot./min
same,ChAT activity (pmol/mg prot./min),ChAT; 30 mg/kg,99.98 ± 5.07 pmol/mg prot./min
same,ChAT activity (pmol/mg prot./min),ChAT; 60 mg/kg,94.69 ± 5.83 pmol/mg prot./min
same,Th-T fluorescence intensity,"Aβ1-40 [5]; 10 μg/ml 6-mer with fresh Aβ1-40, 37° C.",10.46±0.94
same,Th-T fluorescence intensity,"Aβ1-40 [5]; 50 μg/ml 6-mer with fresh Aβ1-40, 37° C.",9.18±1.32
same,Th-T fluorescence intensity,"Aβ1-40 [5]; 100 μg/ml 6-mer with fresh Aβ1-40, 37° C.",7.81±1.38
